Measurements published in US20070276032A1, “Use of 8-Prenylnaringenin for Hormone Replacement Therapy” (priority 2003, published 2007).
Values joined by “and” are separate entries in the source; they are usually repeats but may differ in a detail not shown here. Identical values can stand only once.

How the values were obtained:
ovariectomized rats [1] = experiment: Ex vivo BMD (pQCT) of proximal tibia, 2S(−) 8-PN in ovariectomized rats (Example 3); set-up: species or system Sprague-Dawley rats; conditions: animal study with synthetic relatively pure preparation
Method: (§1) The aim of the study was to examine bone and uterine effects of a 4-week treatment with 2S(−) 8-Prenylnaringenin (8-PN) in 3-month-old ovariectomized rats. […] At the end of the study, uterine weight and ex vivo bone mineral density (BMD) of tibia were measured.
(§2) A total of 30 female 13-14-week-old Sprague-Dawley rats were used in the study. The animals were randomized into 5 groups, with 6 rats/group. Group 1 was sham-operated (SHAM) and groups 2-5 were ovariectomized (OVX).
(§3) Treatments with the vehicle or test substance started on the day following operation. […] The animals were sacrificed one day after the last dosing. At the end of the study, left tibiae were excised for ex vivo BMD measurement (pQCT) at proximal tibia and uteri were excised for the determination of absolute and relative weights. In addition, samples for the determination of 2S(−)8-Prenylnaringenin concentration were taken from all dosing solutions on the day when they were prepared and on the last day of use. The data of body weights, relative uterine weights and BMD were analyzed with one-way analysis of variance.
Bone mineral density measurement was carried out by pQCT (XCT-960A, Stratec, Germany). The bone specimens were thawed before measurement. Six 1 mm-thick sections of the proximal tibia (2 mm below the epiphyseal growth plate) were scanned at 0.5 mm intervals using a voxel size of 0.148 mm. Total and trabecular BMD (mg/cm^3) were measured. After bone densitometry, the specimens were wrapped back to saline saturated gauzes and stored at −20° C.

[2] = Body weight, 8-PN racemic, 2S(−) 8-PN and estradiol hemihydrate in ovariectomized rats (Example 4); assay type: in vivo, Sprague-Dawley rats; conditions: OVX rats; s.c. once a day, 28 days; 20 mg/kg/d in HP-β-CD
Method: (§4) The aim of the study was to directly compare the effects of Prenylnaringenin (racemate) and 2S(−) 8-Prenylnaringenin to the effects of estradiol hemihydrate on bone mineral density and uterine weight on 3-month-old ovariectomized rats using identical formulations. In addition, the effects of estradiolhemihydrate in two vehicles (oily, aqueous) were examined for influence of formulations. The substances were administered subcutaneously(s.c.) seven days a week beginning the day after ovariectomy. At the end of the study, uterine weight and bone mineral density (BMD) of tibia were measured.
(§5) Forty-one female Sprague-Dawley rats, 12-14 weeks of age were randomized into six groups, 6-8 animals in each. Five groups were ovariectomized (OVX) and one group was sham-operated (SHAM). Treatments started on the day following operation and continued for 28 days. The animals were treated s.c. once a day seven times a week as follows. Group 1 (SHAM vehicle group) and group 2 (OVX vehicle group) were given the vehicle 30% hydroxypropyl-β-cyclodextrin (HP-β-CD). Groups 3 and 4 were administered 4 μg/kg/d of estradiol hemihydrate in vehicle benzyl benzoate/ricinus oil (B/R) and in vehicle HP-β-CD, respectively. Groups 5 and 6 were given 20 mg/kg/d of 2S(−)8-Prenylnaringenin and racemic 8-Prenylnaringenin, respectively, both in vehicle HP-β-CD. At the end of the study, left tibiae were excised for the ex vivo BMD […] were taken from all dosing solutions on the first and last day of use.
(§6) Vehicle 1 (used in the groups 1 and 2): 30% hydroxypropyl-β-cyclodextrin and 0.3% NaCl (w/v), 5% ethanol (v/v) in Aqua sterilisata, pH 7.4.
(§7) Vehicle 2 (used when preparing dosing solutions of the groups 4, 5 and 6): 30% hydroxypropyl-β-cyclodextrin and 0.3% NaCl (w/v) in Aqua sterilisata, pH 7.4.
(§8) Vehicle 3 (used when preparing a dosing solution of the group 3): benzyl benzoate/ricinus oil (B/R) 1+4, v/v.

ovariectomized rats [3] = experiment: Relative uterine weight, 2S(−) 8-PN in ovariectomized rats (Example 3); assay type: in vivo, Sprague-Dawley rats
Method: as §1, §2, §3
Relative uterine weight was calculated as percentage of body weight

[4] = reported; cited from earlier work
ERE-Luc = experiment: Estrogenic activity in the estrogen reporter mouse ERE-Luc model, luciferase activity in organs (Example 5); assay type: in vivo, mice
Method: In order to avoid experimental noise male animals were used.
Fourtyfive heterozygous male ERE-Luc mice of two months of age were fed with soy-free diet for two weeks before assigning them to each experimental group then all the mice were injected intraperitoneally (i.p.) with 250 μl of an oily solution containing the following compounds: • 1. Experimental group 1: vehicle • 2. Experimental group 2: 17β-estradiol at 1.5 μg/kg • 3. Experimental group 3: 2S(−)-8-PN at 30 mg/kg • 4. […] Experimental group 5: genistein at 30 mg/kg.
The treatment was carried out in experimental groups of three mice each and repeated three times (therefore numbers reflect the average of […] determinations on a total of 9 animals).
Six hours after the injection, mice were sacrificed by cervical dislocation and organs were dissected and frozen on dry ice. The following organs were analyzed for lucifererase activity by enzymatic assay: prostate, liver, bone, brain.
Data represent means ±standard deviation of N=9 animals per group.
Analysis of variance (ANOVA) for overall comparison was followed by Tukey test for paired comparisons. All statistical procedures were carried out with Systat and SAS (*P<0.05; **P<0.01).

[5] = at the bone loss protective dose; Miyamoto et al 1998; cited from earlier work
ovariectomized rats [6] = experiment: Relative uterus weight, 8-PN racemic, 2S(−) 8-PN and estradiol hemihydrate in ovariectomized rats (Example 4); assay type: in vivo, Sprague-Dawley rats; conditions: OVX rats
Method: as §4, §5, §6, §7, §8

ovariectomized rats [7] = experiment: Trabecular density of proximal tibia, 8-PN racemic, 2S(−) 8-PN and estradiol hemihydrate in ovariectomized rats (Example 4); assay type: in vivo, Sprague-Dawley rats; conditions: OVX rats; s.c. 28 days; 20 mg/kg/d in HP-β-CD
Method: as §4, §5, §6, §7, §8

[8] = s.c. 28 days, 20 mg/kg/d in HP-β-CD, calculated as percentage of body weight

CC(C)=CCc1c(O)cc(O)c2c1OC(c1ccc(O)cc1)CC2=O (racemic) [8-Prenylnaringenin, 5,7-Dihydroxy-2-(4-hydroxyphenyl)-8-(3-methylbut-2-enyl)-chroman-4-on]
effect on bone loss (ovariectomized rats [1]): prevents bone loss in a dose dependent manner
Body weight at The end (bw4b) [2]: 289(8) g
The change in Body weight (bw4b-bw0) [2]: 27(2) g
effect on uterus growth and endometrial stimulation (ovariectomized rats [3]; animal study with synthetic relatively pure preparation): only a minimal and dose independent effect on uterus growth and endometrial stimulation
effect on uterus proliferation relative to that of estradiol (ovariectomized rats [3]; doses equi-effective on protection of bone loss): less than ⅕ and 1/10
estrogenic effect on the uterus, equivalent oral estradiol dose (ovariectomized rats [3]; extended to women treated with a bone protective dose): 0.1 to 0.2 mg/day
estrogenic activity relative to genistein [4]: at least one order of magnitude higher than that of the isoflavone genistein
estrogenic effect in bone and prostate tissue relative to estradiol (ERE-Luc; estimated at dosages leading to the same liver estrogenicity): twofold higher estrogenic effect in bone and prostate tissue than estradiol
Luciferase activity, Prostate (ERE-Luc; male ERE-Luc mice, i.p. 30 mg/kg, six hours after the injection, controls 0.5): 0.9 ** arbitrary units
effect on uterus growth [5]: significant effect on uterus growth at the bone loss protective dose
effect on the uterus and body weight compared with estradiol in the same vehicle (HP-β-CD) (ovariectomized rats [6]; 20 mg/kg/d vs estradiol 4 μg/kg/d, same bone effective dose): much lower effect on the uterus and body weight than estradiol at the same bone effective dose
Relative uterus weight, Mean (ovariectomized rats [6]; [8]): 0.066
Relative uterus weight, Median (ovariectomized rats [6]; [8]): 0.065
Trabecular density at left proximal tibia, Mean (ovariectomized rats [7]): 351 mg/cm3
Trabecular density at left proximal tibia, Median (ovariectomized rats [7]): 351 mg/cm3
